From patent EP0520336A2, “Aldehyde derivatives and their use as calpain inhibitors” (FUJIREBIO Inc., priority 1991, dated 1992) come the findings set out here.

For one assay, the target named is a-chymotrypsin (Bos taurus, UniProt P00766). The experiment in a line: Measurement of inhibitory effect on a-chymotrypsin (glutaryl-L-phenylalanine-p-nitroanilide substrate). In kind it is biochemical. The following applies: a-chymotrypsin activity, 25 ° C, pH = 7.8. The method, then:
Test Example 3 Measurement of Inhibitory Effect on Protease other than Calpain
(2) Measurement of Inhibitory Effect on a-Chymotrypsin
The inhibitory effect on a-chymotrypsin was measured by a partially modified method of Erlanger, B. F. as described in Ach. Biochem. Biophys. 115, 206-210 (1966). […]
The mixture was preincubated at 25 ° C for 3 minutes. […] The increase of 405 nm absorbance was measured at 25 ° C with time, and the transition rate (a) of the absorbance per min was calculated.
The rate (b) of the absorbance of a blank sample treated similarly without any compound dissolved in combined dimethyl sulfoxide and 10% polyoxyethylene 60 hardened castor oil was measured. The inhibition of a-chymotrypsin activity was calculated in accordance with the formula [(b-a)/b] X 100, and the amount of each compound necessary to inhibit a-chymotrypsin activity by 50% [ICso] was calculated according to the method of Probit.
The inhibitory effect of SUAM-14541, a compound disclosed in Japanese Laid-Open Patent Application 1-121257, on a-chymotrypsin activity was measured for comparison.

For another assay, the system named is Calpain. The experiment in a line: Measurement of calpain inhibiting effect (casein hydrolysis, IC50 by Probit). In kind it is biochemical, Japanese white rabbit. The following applies: 30 °C for 30 minutes, pH = 7.5, IC50 by method of Probit. Here is the method:
Test Example 1 Measurement of Calpain Inhibiting Effect
Calpain was separated from a skeletal muscle of a Japanese white rabbit and partially purified according to the method of Tsuji and Imahori as described in J.Biochem. 90, 233-240 (1981), whereby the calpain for use in a test for investigating the calpain inhibiting effect (i.e., the inhibitory effect on calpain activity) of the aldehyde compounds according to the present invention was prepared.
The calpain inhibiting effect was measured in accordance with the method of Yoshimura et al. as described in J. Biol. Chem. 258, 8883-8889 (1983).
Each assay mixture was prepared by mixing 0.05 ml of a 4% casein solution, 0.05 ml of a 50 mM cysteine solution, 0.05 ml of a calpain solution, 0.025 ml of purified water, 0.025 ml of a 10% dimethyl sulfoxide solution containing each compound shown in Table 15 and 0.25 ml of a 200 mM imidazole hydrochloric acid buffer solution (pH = 7.5).
The thus prepared assay mixture was preincubated at 30 ° C for 3 minutes. The reaction was started by the addition of 0.05 ml of a 50 mM calcium chloride solution to the above mixture. After the incubation at 30 °C for 30 minutes, the reaction was terminated by the addition of 0.5 ml of 5% trichloroacetic acid.
The amount of a trichloroacetic-acid-soluble protein produced by hydrolysis of casein by calpain was measured by the spectrophotometric analysis in accordance with the method of Ross and Schatz as described in Anal. Biochem. 54, 304-306 (1973), and the absorbance (a) of each sample was measured.
The absorbance (b) of a blank sample which was treated similarly without any of the aldehyde compounds of the present invention, dissolved in a 10% dimethyl sulfoxide solution, was measured.
The inhibition of calpain activity was calculated in accordance with the formula [(b-a)/b] X 100, and the amount of each aldehyde compound necessary to inhibit calpain activity by 50% [IC50] was calculated according to the method of Probit.

The subject of assay [1] is Platelet rich plasma (PRP). Put plainly: Measurement of platelet-aggregation inhibiting effect (collagen-induced aggregation in platelet rich plasma). Conditions: collagen-induced aggregation in rabbit PRP, preincubated at 37°C for 5 minutes; IC50 by method of Probit. In kind it is cell-based, Japanese white rabbit. The method, then:
Test Example 2 Measurement of Platelet-aggregation Inhibiting Effect
Platelet rich plasma (PRP) was prepared and the platelet aggregation was measured in accordance with the method of Born and Cross as described in J. Phystol. 168, 178-195 (1963).
Blood of a Japanese white rabbit was drawn from a carotid artery of the rabbit. 9 parts by volume of the blood were mixed with 1 part by volume of a 3.8% aqueous solution of sodium citrate. The mixture was immediately centrifuged at 200 x g at 20 °C for 15 minutes, and PRP was obtained in the supernate. The number of platelets was calculated by use of an electronic cell counter (MEK-4150 manufactured by Nihon Kohden Kabushiki Kaisha). PRP with 55 X 10^4 or more platelets per 1 µl was employed in the tests.
10 µl of a test solution containing any of the aldehyde compounds of the present invention was added to 200 µl of PRP. The mixture was preincubated at 37°C for 5 minutes. To this mixture, 10 µl of collagen (22 µg/ml) was added to cause the aggregation. The aggregation was measured by Agricometer (NKK, PAT-4A).
In preparing the above test solution, each compound synthesized in the previously mentioned Examples as shown in Table 16 was dissolved in combined dimethyl sulfoxide and polyoxyethylene 60 hardened castor oil in ethanol. The mixture was diluted with an isotonic saline and the final concentration of the dimethyl sulfoxide and polyoxyethylene 60 hardened castor oil contained in the above mixture was adjusted to less than 1 %.
The inhibitory activity of each aldehyde compound on platelet aggregation was expressed by percentages compared with a blank test defined as 100% which was performed without any of the aldehyde compounds.
The amount of each aldehyde compound necessary to inhibit the platelet aggregation by 50% [IC50] was calculated according to the method of Probit.

As for `CC(C)C[C@H](NC(=O)OCc1ccccc1)C(=O)N[C@H](C=O)COCc1ccsc1` [Compound No. 3-6, L-N-benzyloxycarbonylleucine-(2S)-[1-formyl-2-(thiophene-3-ylmethyl)oxy]ethylamide], the IC50 against a-chymotrypsin was above 100 µM.

For “L-N-benzyloxycarbonylleucine-(2S)-[1-formyl-3-(2-fluorophenyl)thio]propylamide [Compound No. 3-41]”, the IC50 in the assay on Calpain is 0.27 µM; in assay [1] it was 56 µM.

On to “L-N-benzyloxycarbonylleucine-(2S)-[1-formyl-3-(4-chlorophenyl)thio]propylamide [Compound No. 3-43]”, for which the IC50 in the assay with Calpain came out at 0.52 µM; in assay [1], 52 µM.

In general, IC50 refers to the concentration that inhibits the measured activity by half.
